# According to the supplement of paper PMC10307832:
# Key:
# Assay in all cases: relative viability (nuclei count vs DMSO), 5 days (fraction); higher = more cells survive
# NCI-H2085 = tested on: NCI-H2085
# Method in brief: (§1)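 Lung cancer cell lines were seeded in 1536-well plates and dosed by pin tool the next day, with either a single drug or a fixed anchor-drug dose combined with five library-drug doses (not always all listed) spaced in √10 steps. Five days later, one step fixed the cells and stained their nuclei (final 0.05% Triton X-100, 1% formaldehyde, 1 ug/ml Hoechst), and nuclei were counted on 4× images. Relative viability is the nuclei count in treated wells divided by the count in vehicle wells, and each value is the median of duplicate plates.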
# NCI-H2347 = tested on: NCI-H2347
# Method in brief: as §1
# COR-L23 = tested on: COR-L23
# Method in brief: as §1
# SW 1573 = tested on: SW 1573
# Method in brief: as §1
# HCC-78 = tested on: HCC-78
# Method in brief: as §1
# NCI-H358 = tested on: NCI-H358
# Method in brief: as §1
# NCI-H650 = tested on: NCI-H650
# Method in brief: as §1
# NCI-H2126 = tested on: NCI-H2126
# Method in brief: as §1
# UMC-11 = tested on: UMC-11
# Method in brief: as §1
# NCI-H2342 = tested on: NCI-H2342
# Method in brief: as §1
# LU99A = tested on: LU99A
# Method in brief: as §1
# PC-14 = tested on: PC-14
# Method in brief: as §1
# NCI-H2023 = tested on: NCI-H2023
# Method in brief: as §1
# LC-2-ad = tested on: LC-2-ad
# Method in brief: as §1
# NCI-H1651 = tested on: NCI-H1651
# Method in brief: as §1
# NCI-H1993 = tested on: NCI-H1993
# Method in brief: as §1
# HARA = tested on: HARA
# Method in brief: as §1
# HCC-15 = tested on: HCC-15
# Method in brief: as §1
# NCI-H1915 = tested on: NCI-H1915
# Method in brief: as §1
# NCI-H1355 = tested on: NCI-H1355
# Method in brief: as §1
# NCI-H838 = tested on: NCI-H838
# Method in brief: as §1
# EPLC-272H = tested on: EPLC-272H
# Method in brief: as §1
structure (smiles),measurement,setting,value
NC(=O)Nc1cc(-c2cccc(F)c2)sc1C(=O)N[C@H]1CCCNC1 [AZD7762] + CC(=O)Nc1cccc(-n2c(=O)n(C3CC3)c(=O)c3c(Nc4ccc(I)cc4F)n(C)c(=O)c(C)c32)c1 [Trametinib] (partner 0.02 µM),relative viability,NCI-H2085; first compound 0.01 µM,0.514
same,relative viability,NCI-H2085; first compound 0.03162 µM,0.559
same,relative viability,NCI-H2085; first compound 0.1 µM,0.632
same,relative viability,NCI-H2085; first compound 0.3162 µM,0.713
same,relative viability,NCI-H2085; first compound 1 µM,0.357
same,relative viability,NCI-H2347; first compound 0.01 µM,0.313
same,relative viability,NCI-H2347; first compound 0.03162 µM,0.279
same,relative viability,NCI-H2347; first compound 0.1 µM,0.281
same,relative viability,NCI-H2347; first compound 0.3162 µM,0.287
same,relative viability,NCI-H2347; first compound 1 µM,0.305
same,relative viability,COR-L23; first compound 0.01 µM,0.702
same,relative viability,COR-L23; first compound 0.03162 µM,0.623
same,relative viability,COR-L23; first compound 0.1 µM,0.518
same,relative viability,COR-L23; first compound 0.3162 µM,0.319
same,relative viability,COR-L23; first compound 1 µM,0.119
same,relative viability,SW 1573; first compound 0.01 µM,0.741
same,relative viability,SW 1573; first compound 0.03162 µM,0.502
same,relative viability,SW 1573; first compound 0.1 µM,0.584
same,relative viability,SW 1573; first compound 0.3162 µM,0.583
same,relative viability,SW 1573; first compound 1 µM,0.342
same,relative viability,HCC-78; first compound 0.01 µM,0.937
same,relative viability,HCC-78; first compound 0.03162 µM,0.864
same,relative viability,HCC-78; first compound 0.1 µM,0.828
same,relative viability,HCC-78; first compound 0.3162 µM,0.969
same,relative viability,HCC-78; first compound 1 µM,0.416
same,relative viability,NCI-H358; first compound 0.01 µM,0.136
same,relative viability,NCI-H358; first compound 0.03162 µM,0.135
same,relative viability,NCI-H358; first compound 0.1 µM,0.148
same,relative viability,NCI-H358; first compound 0.3162 µM,0.145
same,relative viability,NCI-H358; first compound 1 µM,0.1
same,relative viability,NCI-H650; first compound 0.01 µM,0.984
same,relative viability,NCI-H650; first compound 0.03162 µM,1.08
same,relative viability,NCI-H650; first compound 0.1 µM,1.05
same,relative viability,NCI-H650; first compound 0.3162 µM,1.04
same,relative viability,NCI-H650; first compound 1 µM,0.756
same,relative viability,NCI-H2126; first compound 0.01 µM,0.547
same,relative viability,NCI-H2126; first compound 0.03162 µM,0.629
same,relative viability,NCI-H2126; first compound 0.1 µM,0.529
same,relative viability,NCI-H2126; first compound 0.3162 µM,0.639
same,relative viability,NCI-H2126; first compound 1 µM,0.675
same,relative viability,UMC-11; first compound 0.01 µM,0.678
same,relative viability,UMC-11; first compound 0.03162 µM,0.696
same,relative viability,UMC-11; first compound 0.1 µM,0.656
same,relative viability,UMC-11; first compound 0.3162 µM,0.665
same,relative viability,UMC-11; first compound 1 µM,0.33
same,relative viability,NCI-H2342; first compound 0.01 µM,0.861
same,relative viability,NCI-H2342; first compound 0.03162 µM,0.756
same,relative viability,NCI-H2342; first compound 0.1 µM,0.828
same,relative viability,NCI-H2342; first compound 0.3162 µM,0.863
same,relative viability,NCI-H2342; first compound 1 µM,0.97
same,relative viability,LU99A; first compound 0.01 µM,0.595
same,relative viability,LU99A; first compound 0.03162 µM,0.522
same,relative viability,LU99A; first compound 0.1 µM,0.523
same,relative viability,LU99A; first compound 0.3162 µM,0.586
same,relative viability,LU99A; first compound 1 µM,0.43
same,relative viability,PC-14; first compound 0.01 µM,0.802
same,relative viability,PC-14; first compound 0.03162 µM,0.832
same,relative viability,PC-14; first compound 0.1 µM,0.659
same,relative viability,PC-14; first compound 0.3162 µM,0.236
same,relative viability,PC-14; first compound 1 µM,0.0675
same,relative viability,NCI-H2023; first compound 0.01 µM,0.596
same,relative viability,NCI-H2023; first compound 0.03162 µM,0.46
same,relative viability,NCI-H2023; first compound 0.1 µM,0.293
same,relative viability,NCI-H2023; first compound 0.3162 µM,0.156
same,relative viability,NCI-H2023; first compound 1 µM,0.132
same,relative viability,LC-2-ad; first compound 0.01 µM,0.914
same,relative viability,LC-2-ad; first compound 0.03162 µM,0.9
same,relative viability,LC-2-ad; first compound 0.1 µM,0.906
same,relative viability,LC-2-ad; first compound 0.3162 µM,0.647
same,relative viability,LC-2-ad; first compound 1 µM,0.544
same,relative viability,NCI-H1651; first compound 0.01 µM,0.882
same,relative viability,NCI-H1651; first compound 0.03162 µM,0.852
same,relative viability,NCI-H1651; first compound 0.1 µM,0.871
same,relative viability,NCI-H1651; first compound 0.3162 µM,0.873
same,relative viability,NCI-H1651; first compound 1 µM,0.766
same,relative viability,NCI-H1993; first compound 0.01 µM,0.458
same,relative viability,NCI-H1993; first compound 0.03162 µM,0.482
same,relative viability,NCI-H1993; first compound 0.1 µM,0.605
same,relative viability,NCI-H1993; first compound 0.3162 µM,0.674
same,relative viability,NCI-H1993; first compound 1 µM,0.536
same,relative viability,HARA; first compound 0.01 µM,0.686
same,relative viability,HARA; first compound 0.03162 µM,0.629
same,relative viability,HARA; first compound 0.1 µM,0.868
same,relative viability,HARA; first compound 0.3162 µM,0.664
same,relative viability,HARA; first compound 1 µM,0.295
same,relative viability,HCC-15; first compound 0.01 µM,0.407
same,relative viability,HCC-15; first compound 0.03162 µM,0.393
same,relative viability,HCC-15; first compound 0.1 µM,0.413
same,relative viability,HCC-15; first compound 0.3162 µM,0.351
same,relative viability,HCC-15; first compound 1 µM,0.443
same,relative viability,NCI-H1915; first compound 0.01 µM,0.342
same,relative viability,NCI-H1915; first compound 0.03162 µM,0.332
same,relative viability,NCI-H1915; first compound 0.1 µM,0.305
same,relative viability,NCI-H1915; first compound 0.3162 µM,0.362
same,relative viability,NCI-H1915; first compound 1 µM,0.271
same,relative viability,NCI-H1355; first compound 0.01 µM,0.406
same,relative viability,NCI-H1355; first compound 0.03162 µM,0.466
same,relative viability,NCI-H1355; first compound 0.1 µM,0.368
same,relative viability,NCI-H1355; first compound 0.3162 µM,0.441
same,relative viability,NCI-H1355; first compound 1 µM,0.522
same,relative viability,NCI-H838; first compound 0.01 µM,0.632
same,relative viability,NCI-H838; first compound 0.03162 µM,0.513
same,relative viability,NCI-H838; first compound 0.1 µM,0.483
same,relative viability,NCI-H838; first compound 0.3162 µM,0.537
same,relative viability,NCI-H838; first compound 1 µM,0.305
same,relative viability,EPLC-272H; first compound 0.01 µM,0.28
same,relative viability,EPLC-272H; first compound 0.03162 µM,0.297
same,relative viability,EPLC-272H; first compound 0.1 µM,0.277
same,relative viability,EPLC-272H; first compound 0.3162 µM,0.293
same,relative viability,EPLC-272H; first compound 1 µM,0.227
